Assay results: US5508304A, “Glucagon antagonists and methods relating thereto” (ZymoGenetics, Inc., priority 1994, dated 1996)

Assays:
glucagon receptor = molecular target: T1, glucagon receptor (Rattus norvegicus, UniProt P30082); experiment: Adenylate cyclase assay: glucagon-stimulated cAMP production in liver plasma membranes (Amersham Scintillation Proximity Assay kit); type: biochemical; details: for cAMP response to glucagon, serial dilutions of test substance: fixed 5 nM glucagon stock, 5 μl per well; for inhibition of cAMP activity with increasing concentration of test substance (FIG. 7): fixed concentration of glucagon
T1 construct: Liver plasma membranes for use in adenylate cyclase assays were prepared; from tissue; host or cells: rat liver plasma membranes
Procedure: Liver plasma membranes for use in adenylate cyclase assays were prepared essentially as described by Neville et al. (Biochim. Biophys. Acta 154:540-552, 1968) as modified by Pohl (Methods in Receptor Research, Blecher (ed.), New York, pp. 160-164, 1976). Twenty rats were euthanized by decapitation, and the livers were removed and cooled to 4° C. After cooling, the livers were maintained at 4° C. during the membrane preparation. The approximate volume of the livers was determined. Three volumes of medium (1 mM NaHCO3, 0.5 mM CaCl2) were added to the livers, and the liver tissue was roughly minced with scissors. The minced tissue was divided into two parts, and each part was homogenized for thirty seconds in a Waring-type blender at full speed. After homogenization, the homogenates were each transferred to a sieve with a 1.5 mm pore size, and the homogenates were strained through the sieve. The straining procedure was repeated for each homogenate through a finer screen. The strained homogenates were combined, and medium was added to a final volume of one liter. The homogenate was further homogenized with a Dounce homogenizer using eight vigorous strokes of the loose pestle. The homogenates were filtered through four layers of cheesecloth. The strained homogenates were centrifuged at approximately 150×g in a swinging bucket rotor for 20 minutes at 4° C. The supernalant was discarded, and the precipitate was resuspended in 500 ml of medium and homogenized in a Dounce homogenizer with three strokes of the loose pestle. The centrifugation was repeated, and the resulting precipitate was resuspended in 250 ml of medium. The homogenate was centrifuged as described, and the precipitate was suspended in 50 to 100 ml of medium. The suspension was homogenized in a Dounce homogenizer with three strokes of the loose pestle. Sucrose from a 69% sucrose solution was added to the suspension to a final sucrose concentration of 44.0±0.1%. The solution was centrifuged in an ultracentrifuge at approximately 100,000×g for 150 minutes. The membranes were removed from the top of the tube with a spoon. The membranes were stored at -80° C.
Adenylate cyclase assays were carried out in the presence and absence of […] diluted in DMSO. Glucagon (Mallinkrodt Inc. St. Louis, Mo.) was dissolved in 10% acetic acid and lyophilized in 25-μg portions. The lyophilized glucagon was dissolved in 100 μl of 0.05M HCl and left for three minutes, after which the glucagon was serially diluted in buffer (2.5% human serum albumin (Grade 5, Sigma Chemical Co., St. Louis, Mo.) in 0.1M HEPES, 0.15M NaCl, pH 7.4) to final concentrations of between 0 and 100 nM. Aliquots of the membrane preparations were thawed and diluted with water to a protein concentration of approximately 3-5 mg/ml.
For each 96-well assay plate, triplicate samples were assayed in the presence and absence of 20 μM skyrin. […] Five microliters of 20 μM skyrin in DMSO or 5 μl of DMSO alone was added to each well. Fifty microliters of incubation mixture (0.1% human serum albumin (Grade 5, Sigma), 15 mM MgCl2, 1 mM ATP, 0.9 mM IBMX (3-isobutyl-1-methylxanthine, Sigma), 15 mM creatine phosphate, and 5 mg/ml creatine phosphokinase in 50 mM Tris-HCl (pH 7.4) was then added to each well. […]
The cAMP produced in each reaction was determined by assaying 10 μl of each sample using an Amersham Scintillation Proximity Assay kit (Amersham, Arlington Heights, Ill.). […]

[1] = molecular target: T2, VIP-stimulated non-glucagon G protein-coupled receptors in liver membranes (Rattus norvegicus, UniProt P30083); experiment: Adenylate cyclase assay with VIP in place of glucagon; type: biochemical; details: serial dilutions of VIP, with and without skyrin; FIG. 4
T2 construct: Liver plasma membranes for use in adenylate cyclase assays were prepared; from tissue; host or cells: rat liver plasma membranes
T2 sequence (P30083 31-459): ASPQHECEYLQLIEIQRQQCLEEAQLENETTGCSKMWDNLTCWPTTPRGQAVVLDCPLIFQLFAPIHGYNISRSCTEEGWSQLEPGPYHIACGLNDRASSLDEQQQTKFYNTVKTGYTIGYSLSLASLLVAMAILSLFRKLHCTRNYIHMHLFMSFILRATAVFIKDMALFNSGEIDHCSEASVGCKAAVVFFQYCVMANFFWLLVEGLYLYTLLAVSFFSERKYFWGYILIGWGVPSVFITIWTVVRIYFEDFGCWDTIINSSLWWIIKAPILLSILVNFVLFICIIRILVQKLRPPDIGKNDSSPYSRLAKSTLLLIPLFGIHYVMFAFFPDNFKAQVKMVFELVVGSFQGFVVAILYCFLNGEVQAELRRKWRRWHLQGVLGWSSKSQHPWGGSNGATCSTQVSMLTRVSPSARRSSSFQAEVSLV
Procedure: (§1) Liver plasma membranes for use in adenylate cyclase assays were prepared essentially as described by Neville et al. (Biochim. Biophys. Acta 154:540-552, 1968) as modified by Pohl (Methods in Receptor Research, Blecher (ed.), New York, pp. 160-164, 1976). Twenty rats were euthanized by decapitation, and the livers were removed and cooled to 4° C. After cooling, the livers were maintained at 4° C. during the membrane preparation. The approximate volume of the livers was determined. Three volumes of medium (1 mM NaHCO3, 0.5 mM CaCl2) were added to the livers, and the liver tissue was roughly minced with scissors. The minced tissue was divided into two parts, and each part was homogenized for thirty seconds in a Waring-type blender at full speed. After homogenization, the homogenates were each transferred to a sieve with a 1.5 mm pore size, and the homogenates were strained through the sieve. […]
(§2) The cAMP produced in each reaction was determined by assaying 10 μl of each sample using an Amersham Scintillation Proximity Assay kit (Amersham, Arlington Heights, Ill.).
(§3) The specificity of the skyrin antagonist activity was assessed by replacing the serial dilutions of glucagon with serial dilutions of vasoactive intestinal peptide (VIP; Sigma Chemical Co., St. Louis, Mo.), calcitonin gene-related peptide (CGRP), forskolin (Calbiochem, San Diego, Calif.) and GTP-γS. […]

[2] = molecular target: T3, CGRP-stimulated non-glucagon G protein-coupled receptors in liver membranes (Rattus norvegicus, UniProt Q63118); experiment: Adenylate cyclase assay with CGRP in place of glucagon; type: biochemical; details: serial dilutions of CGRP, with and without skyrin; FIG. 5
T3 construct: Liver plasma membranes for use in adenylate cyclase assays were prepared; from tissue; host or cells: rat liver plasma membranes
Procedure: as §1, §2, §3

[3] = tested on: GTPγS-stimulated cAMP production; experiment: Adenylate cyclase assay with GTPγS, receptor-independent stimulation of cAMP production; type: biochemical, rat
Procedure: as §1, §2, §3

[4] = tested on: forskolin-stimulated cAMP production; experiment: Adenylate cyclase assay with forskolin, receptor-independent stimulation of cAMP production; type: biochemical, rat; details: presence and absence of 0.02 mM skyrin
Procedure: as §1, §2, §3

[5] = molecular target: T4, glucagon binding to rat liver membranes (Rattus norvegicus, UniProt P30082); experiment: 125I-glucagon binding to rat liver membranes; details: 20 μl of 56 μM skyrin vs DMSO; 30 min at 30° C.; FIG. 8
T4 construct: 0.2 mg of rat liver membranes in 20 μl in water; from tissue; host or cells: rat liver membranes
Procedure: Glucagon binding to rat liver membranes in the presence and absence of skyrin was determined in this experiment. Reactions tubes were prepared, each of which contained 20 μl of serially diluted unlabeled glucagon from 10^-5 M to 10^-10 M, 100 μl of 2× binding buffer (100 mM HEPES, pH 7.6), 200 mM NaCl, 2 mM EDTA, 2.0% bovine serum albumin (BSA), 1.0 mg/ml of bacitracin (Sigma Chem. Co.), approximately 0.1 nmoles of ^125 I-glucagon (Amersham) in 10 mM acetic acid/0.5% BSA with a specific activity of 2000 Ci/mmole, 20 μl of 56 μM skyrin (dissolved and diluted in DMSO) or DMSO, and water to achieve a final volume of 180 μl. The reaction was initiated by the addition of 0.2 mg of rat liver membranes in 20 μl in water. The reactions were incubated for 30 minutes at 30° C. After incubation the tubes were centrifuged at high speed in a microfuge for 10 minutes at 4° C. The supernatants were discarded, and the radioactivity in the pellets was quantitated with a gamma-counter (the level of radioactivity in a sample indicated the total binding of glucagon to the rat liver membranes). […] Based on this experiment, it is believed that the glucagon antagonists of this invention, including skyrin and skyrin analogs, function as glucagon antagonists by interrupting postglucagon binding events.

[6] = Stark et al. 1978; cited from earlier work
rat liver mitochondria = details: cited from earlier work
[7] = tested on: rat leukemia cell mitochondria; details: cited from earlier work
[8] = tested on: rice dwarf virus-RNA transcriptase; details: Yangai et al. 1976; cited from earlier work

T1 sequence (P30082 27-485): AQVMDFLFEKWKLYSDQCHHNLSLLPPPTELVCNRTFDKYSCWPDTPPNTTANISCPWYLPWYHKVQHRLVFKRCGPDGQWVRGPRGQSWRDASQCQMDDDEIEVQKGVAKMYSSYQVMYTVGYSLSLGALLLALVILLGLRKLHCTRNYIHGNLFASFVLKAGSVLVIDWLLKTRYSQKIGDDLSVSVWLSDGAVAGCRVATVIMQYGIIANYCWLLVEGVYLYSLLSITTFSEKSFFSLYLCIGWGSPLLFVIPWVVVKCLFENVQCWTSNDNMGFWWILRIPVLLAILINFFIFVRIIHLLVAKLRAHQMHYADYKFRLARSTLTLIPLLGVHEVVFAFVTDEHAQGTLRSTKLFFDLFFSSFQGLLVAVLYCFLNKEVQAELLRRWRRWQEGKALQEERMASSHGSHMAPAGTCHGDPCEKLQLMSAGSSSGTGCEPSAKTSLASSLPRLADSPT
T3 sequence (Q63118 24-464): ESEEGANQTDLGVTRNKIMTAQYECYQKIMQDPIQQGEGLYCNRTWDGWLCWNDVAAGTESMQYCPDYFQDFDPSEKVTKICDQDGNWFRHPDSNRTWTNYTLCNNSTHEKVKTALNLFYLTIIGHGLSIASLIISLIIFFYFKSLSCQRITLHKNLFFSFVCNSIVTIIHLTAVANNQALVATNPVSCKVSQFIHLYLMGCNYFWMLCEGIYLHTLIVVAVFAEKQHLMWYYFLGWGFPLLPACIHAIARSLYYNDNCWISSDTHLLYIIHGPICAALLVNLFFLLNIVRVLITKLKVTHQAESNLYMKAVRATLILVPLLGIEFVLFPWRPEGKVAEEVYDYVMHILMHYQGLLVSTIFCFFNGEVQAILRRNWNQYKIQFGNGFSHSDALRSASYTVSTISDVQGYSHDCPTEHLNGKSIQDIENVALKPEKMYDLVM
T3 sequence (Q9JJ74 27-148 partner): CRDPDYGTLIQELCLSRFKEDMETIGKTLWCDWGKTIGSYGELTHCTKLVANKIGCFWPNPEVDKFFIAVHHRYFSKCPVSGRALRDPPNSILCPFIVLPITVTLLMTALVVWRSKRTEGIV
T4 sequence (P30082 27-485): as the sequence (P30082 27-485) above

With Cc1cc(O)c2c(c1)C(=O)c1c(c(O)cc(O)c1-c1c(O)cc(O)c3c1C(=O)c1cc(CO)cc(O)c1C3=O)C2=O [oxyskyrine] the “cAMP response to glucagon, serial dilutions of test substance” value (glucagon receptor) was “inhibited cAMP response to glucagon” and the “inhibition of cAMP activity with increasing concentration of test substance (FIG. 7)” value (glucagon receptor) was “increase in inhibition of cAMP activity”.

In the case of Cc1cc(O)c2c(c1)C(=O)c1c(c(O)cc(O)c1-c1c(O)cc(O)c3c1C(=O)c1cc(C)cc(O)c1C3=O)C2=O [skyrin], the “cAMP response to glucagon” value (glucagon receptor; 20 μM skyrin in DMSO vs DMSO alone, glucagon 0-100 nM, FIG. 3) was “inhibited the cAMP response to glucagon”, the “cAMP response to glucagon, serial dilutions of test substance” value (glucagon receptor) was “inhibited cAMP response to glucagon” and the “inhibition of cAMP activity with increasing concentration of test substance (FIG. 7)” value (glucagon receptor) was “increase in inhibition of cAMP activity”. The “stimulation of cAMP production by VIP” value [1] was “did not affect the stimulation”, the “stimulation of cAMP production by CGRP” value [2] was “did not affect the stimulation” and the “cAMP levels produced by GTPγS” value ([3]; presence and absence of 0.02 mM skyrin) was “unaffected”. The “GTPγS-stimulated cAMP levels (FIG. 6)” value ([3]; presence of 0.2 mM skyrin as printed) was “uneffected”, the “cAMP levels produced by forskolin” value [4] was “unaffected” and the “binding of glucagon to rat liver membrane” value [5] was “increased binding of glucagon”. For the same compound, the mutagenicity [6] was “non-mutagenic”, the “uncoupling of oxidative phosphorylation” value (rat liver mitochondria) was “uncouple oxidative phosphorylation” and the “uncoupling of oxidative phosphorylation” value [7] was “uncouple oxidative phosphorylation”. The “inhibition of rice dwarf virus-RNA transcriptase” value [8] was “selectively inhibit”.
